Key:
SREBP-2 = SREBP-2 (Homo sapiens (Human), UniProt Q12772); experiment: In vitro assay SREBP-2: PathHunter U2OS SREBP-2 Nuclear Translocation Cell Line, U18666A-stimulated; type: cell-based; settings: PathHunter U2OS SREBP-2 nuclear translocation cells, U18666A 10 μM, overnight (16 hours)
LXRβ = LXRβ (Homo sapiens (Human), UniProt P55055); experiment: In vitro assay LXRβ: PathHunter NHR CHO cells, LXRβ / Steroid Receptor Co-activator Peptide enzyme fragment complementation; type: cell-based; settings: PathHunter NHR CHO cells, full-length human LXRβ and SRCP, chemiluminescent signal; read-out: LXRβ PPI
LXRβ, sequence (P55055 whole entry, the tested form may be a part): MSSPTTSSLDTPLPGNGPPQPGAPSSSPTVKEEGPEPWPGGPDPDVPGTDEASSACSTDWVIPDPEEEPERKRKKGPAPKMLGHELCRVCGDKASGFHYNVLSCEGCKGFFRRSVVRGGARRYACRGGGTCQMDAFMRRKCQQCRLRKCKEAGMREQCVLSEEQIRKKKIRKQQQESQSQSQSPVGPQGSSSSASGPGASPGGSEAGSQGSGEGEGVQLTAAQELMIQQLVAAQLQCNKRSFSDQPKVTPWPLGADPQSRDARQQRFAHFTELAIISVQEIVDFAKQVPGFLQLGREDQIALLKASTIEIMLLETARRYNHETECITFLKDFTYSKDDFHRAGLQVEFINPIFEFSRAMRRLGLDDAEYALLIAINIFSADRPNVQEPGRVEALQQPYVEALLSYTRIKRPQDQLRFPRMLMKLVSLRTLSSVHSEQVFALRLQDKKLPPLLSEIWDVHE
Summary of the method: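 Enzyme fragment complementation read-out: CHO cells stably expressing ProLink-tagged full-length human LXRβ plus nuclear enzyme acceptor–SRCP fusion, seeded and held overnight at 37° C. Medium with charcoal-dextran filtered serum; final vehicle 1%. Chemiluminescence measured after signal generation.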

Structure (SMILES) | IC50 (SREBP-2) [nM] | EC50 (LXRβ) [µM]
COC(=O)N1CCC12CN(C(=O)CC[C@@H](C)[C@H]1CC[C@H]3[C@@H]4CC=C5C[C@@H](O)CC[C@]5(C)[C@H]4CC[C@]13C)C2 [Example 552, methyl6-((R)-4-((3S,8S,9S,10R,13R,14S,17R)-3-hydroxy-10,13-dimethyl-2,3,4,7,8,9,10,11,12,13,14,15,16,17-tetradecahydro-1H-cyclopenta[a]phenanthren-17-yl)pentanoyl)-1,6-diazaspiro[3.3]heptane-1-carboxylate] | 1000 to 10000 | > 10
C[C@H](CCC(=O)N1CC[C@H](Oc2ccncc2)[C@@H](C)C1)[C@H]1CC[C@H]2[C@@H]3CC=C4C[C@@H](O)CC[C@]4(C)[C@H]3CC[C@]12C [Example 571, (R)-4-((3S,8S,9S,10R,13R,14S,17R)-3-hydroxy-10,13-dimethyl-2,3,4,7,8,9,10,11,12,13,14,15,16,17-tetradecahydro-1H-cyclopenta[a]phenanthren-17-yl)-1-((3S,4S)-3-methyl-4-(pyridin-4-yloxy)piperidin-1-yl)pentan-1-one] | < 250 | > 10
C[C@H](CCC(=O)N1CCC(C)(CNS(C)(=O)=O)CC1)[C@H]1CC[C@H]2[C@@H]3CC=C4C[C@@H](O)CC[C@]4(C)[C@H]3CC[C@]12C [Example 367, N-({1-[(4R)-4-[(1R,3aS,3bS,7S,9aR,9bS,11aR)-7-hydroxy-9a,11a-dimethyl-1H,2H,3H,3aH,3bH,4H,6H,7H,8H,9H,9aH,9bH,10H,11H,11aH-cyclopenta[a]phenanthren-1-yl]pentanoyl]-4-methylpiperidin-4-yl}methyl)methanesulfonamide] | < 250 | > 10
C[C@H](CCC(=O)N1CCC(O)(C2CC2)CC1)[C@H]1CC[C@H]2[C@@H]3CC=C4C[C@@H](O)CC[C@]4(C)[C@H]3CC[C@]12C [Example 193, (R)-1-(4-cyclopropyl-4-hydroxypiperidin-1-yl)-4-((3S,8S,9S,10R,13R,14S,17R)-3-hydroxy-10,13-dimethyl-2,3,4,7,8,9,10,11,12,13,14,15,16,17-tetradecahydro-1H-cyclopenta[a]phenanthren-17-yl)pentan-1-one] | < 250 | < 0.25
C[C@H](CCc1cncnc1)[C@H]1CC[C@H]2[C@@H]3CC=C4C[C@@H](O)CC[C@]4(C)[C@H]3CC[C@]12C [Example 171, (3S,8S,9S,10R,13R,14S,17R)-10,13-dimethyl-17-((R)-4-(pyrimidin-5-yl)butan-2-yl)-2,3,4,7,8,9,10,11,12,13,14,15,16,17-tetradecahydro-1H-cyclopenta[a]phenanthren-3-ol] | < 250 | > 10
C[C@H](CCC(=O)N1CCC(C)(C(N)=O)CC1)[C@H]1CC[C@H]2[C@@H]3CC=C4C[C@@H](O)CC[C@]4(C)[C@H]3CC[C@]12C [Example 85, 1-((R)-4-((3S,8S,9S,10R,13R,14S,17R)-3-hydroxy-10,13-dimethyl-2,3,4,7,8,9,10,11,12,13,14,15,16,17-tetradecahydro-1H-cyclopenta[a]phenanthren-17-yl)pentanoyl)-4-methylpiperidine-4-carboxamide] | < 250 | > 10
C[C@@H]1CCN(C(=O)CC[C@@H](C)[C@H]2CC[C@H]3[C@@H]4CC=C5C[C@@H](O)CC[C@]5(C)[C@H]4CC[C@]23C)O1 [Example 59, (R)-4-((3S,8S,9S,10R,13R,14S,17R)-3-hydroxy-10,13-dimethyl-2,3,4,7,8,9,10,11,12,13,14,15,16,17-tetradecahydro-1H-cyclopenta[a]phenanthren-17-yl)-1-((R)-5-methylisoxazolidin-2-yl)pentan-1-one] |  | 0.25 to 1
C[C@H](CCC(=O)N1CCC(Oc2cccnc2)CC1)[C@H]1CC[C@H]2[C@@H]3CC=C4C[C@@H](O)CC[C@]4(C)[C@H]3CC[C@]12C [Example 219, (R)-4-((3S,8S,9S,10R,13R,14S,17R)-3-hydroxy-10,13-dimethyl-2,3,4,7,8,9,10,11,12,13,14,15,16,17-tetradecahydro-1H-cyclopenta[a]phenanthren-17-yl)-1-(4-(pyridin-3-yloxy)piperidin-1-yl)pentan-1-one] |  | > 10
COC(=O)N1CCN(C(=O)OC[C@@H](C)[C@H]2CC[C@H]3[C@@H]4CC=C5C[C@@H](O)CC[C@]5(C)[C@H]4CC[C@]23C)CC1 [Example 238, 1-(2S)-2-[(1R,3aS,3bS,7S,9aR,9bS,11aS)-7-hydroxy-9a,11a-dimethyl-1H,2H,3H,3aH,3bH,4H,6H,7H,8H,9H,9aH,9bH,10H,11H,11aH-cyclopenta[a]phenanthren-1-yl]propyl 4-methyl piperazine-1,4-dicarboxylate] |  | > 10
CC(=O)N1CCN(C(=O)CC[C@@H](C)[C@H]2CC[C@H]3[C@@H]4CC=C5C[C@@H](O)CC[C@]5(C)[C@H]4CC[C@]23C)C[C@@H]1C [Example 427, (R)-1-((S)-4-acetyl-3-methylpiperazin-1-yl)-4-((3S,8S,9S,10R,13R,14S,17R)-3-hydroxy-10,13-dimethyl-2,3,4,7,8,9,10,11,12,13,14,15,16,17-tetradecahydro-1H-cyclopenta[a]phenanthren-17-yl)pentan-1-one] |  | > 10
COCCON(C)C(=O)CC[C@@H](C)[C@H]1CC[C@H]2[C@@H]3CC=C4C[C@@H](O)CC[C@]4(C)[C@H]3CC[C@]12C [Example 27, (R)-4-((3S,8S,9S,10R,13R,14S,17R)-3-hydroxy-10,13-dimethyl-2,3,4,7,8,9,10,11,12,13,14,15,16,17-tetradecahydro-1H-cyclopenta[a]phenanthren-17-yl)-N-(2-methoxyethoxy)-N-methylpentanamide] |  | 1 to 10
CNS(=O)(=O)C1CCN(C(=O)CC[C@@H](C)[C@H]2CC[C@H]3[C@@H]4CC=C5C[C@@H](O)CC[C@]5(C)[C@H]4CC[C@]23C)CC1 [Example 291, 1-[(4R)-4-[(1R,3aS,3bS,7S,9aR,9bS,11aR)-7-hydroxy-9a,11a-dimethyl-1H,2H,3H,3aH,3bH,4H,6H,7H,8H,9H,9aH,9bH,10H,11H,11aH-cyclopenta[a]phenanthren-1-yl]pentanoyl]-N-methylpiperidine-4-sulfonamide] |  | > 10
CC(=O)N1CCC(N(C)C(=O)CC[C@@H](C)[C@H]2CC[C@H]3[C@@H]4CC=C5C[C@@H](O)CC[C@]5(C)[C@H]4CC[C@]23C)CC1 [Example 407, (4R)-4-[(1R,3aS,3bS,7S,9aR,9bS,11aR)-7-hydroxy-9a,11a-dimethyl-1H,2H,3H,3aH,3bH,4H,6H,7H,8H,9H,9aH,9bH,10H,11H,11aH-cyclopenta[a]phenanthren-1-yl]-N-(1-acetylpiperidin-4-yl)-N-methylpentanamide] |  | > 10
CON(C)C(=O)[C@H](C)C[C@@H](C)[C@H]1CC[C@H]2[C@@H]3CC=C4C[C@@H](O)CC[C@]4(C)[C@H]3CC[C@]12C [Example 141, (2R,4R)-4-[(1R,3aS,3bS,7S,9aR,9bS,11aR)-7-hydroxy-9a,11a-dimethyl-2,3,3a,3b,4,6,7,8,9,9a,9b,10,11,11a-tetradecahydro-1H-cyclopenta[a]phenanthren-1-yl]-N-methoxy-N,2-dimethylpentanamide] |  | > 10
C[C@H](CCC(=O)N1OCC[C@@H]1C)[C@H]1CC[C@H]2[C@@H]3CC=C4C[C@@H](O)CC[C@]4(C)[C@H]3CC[C@]12C [Example 57, (R)-4-((3S,8S,9S,10R,13R,14S,17R)-3-hydroxy-10,13-dimethyl-2,3,4,7,8,9,10,11,12,13,14,15,16,17-tetradecahydro-1H-cyclopenta[a]phenanthren-17-yl)-1-((S)-3-methylisoxazolidin-2-yl)pentan-1-one] |  | 0.25 to 1
C[C@H](CCC(=O)N1CCC(CNS(=O)(=O)C(F)(F)F)CC1)[C@H]1CC[C@H]2[C@@H]3CC=C4C[C@@H](O)CC[C@]4(C)[C@H]3CC[C@]12C [Example 231, 1,1,1-trifluoro-N-((1-((R)-4-((3S,8S,9S,10R,13R,14S,17R)-3-hydroxy-10,13-dimethyl-2,3,4,7,8,9,10,11,12,13,14,15,16,17-tetradecahydro-1H-cyclopenta[a]phenanthren-17-yl)pentanoyl)piperidin-4-yl)methyl)methanesulfonamide] |  | > 10
CO[C@H]1CCCN(C(=O)CC[C@@H](C)[C@H]2CC[C@H]3[C@@H]4CC=C5C[C@@H](O)CC[C@]5(C)[C@H]4CC[C@]23C)C1 [Example 300, (R)-4-((3S,8S,9S,10R,13R,14S,17R)-3-hydroxy-10,13-dimethyl-2,3,4,7,8,9,10,11,12,13,14,15,16,17-tetradecahydro-1H-cyclopenta[a]phenanthren-17-yl)-1-((S)-3-methoxypiperidin-1-yl)pentan-1-one] |  | 0.25 to 1
C[C@H](CCC(=O)N1CCC(Oc2cnccn2)CC1)[C@H]1CC[C@H]2[C@@H]3CC=C4C[C@@H](O)CC[C@]4(C)[C@H]3CC[C@]12C [Example 220, (R)-4-((3S,8S,9S,10R,13R,14S,17R)-3-hydroxy-10,13-dimethyl-2,3,4,7,8,9,10,11,12,13,14,15,16,17-tetradecahydro-1H-cyclopenta[a]phenanthren-17-yl)-1-(4-(pyrazin-2-yloxy)piperidin-1-yl)pentan-1-one] |  | 1 to 10
CC(C)C(=O)N1CCN(C(=O)CC[C@@H](C)[C@H]2CC[C@H]3[C@@H]4CC=C5C[C@@H](O)CC[C@]5(C)[C@H]4CC[C@]23C)CC1 [Example 315, (R)-4-((3S,8S,9S,10R,13R,14S,17R)-3-hydroxy-10,13-dimethyl-2,3,4,7,8,9,10,11,12,13,14,15,16,17-tetradecahydro-1H-cyclopenta[a]phenanthren-17-yl)-1-(4-isobutyrylpiperazin-1-yl)pentan-1-one] |  | > 10
